Measurements as given in patent publication US20100204243A1, “Process for the Preparation of Poly DL-Lactide-Co-Glycolide Nanoparticles Having Antitubercular Drugs Encapsulated Therein” (priority 2005, published 2010).
≈ marks a conversion by molar mass, not a printed value.

Tests used:
[1] = Stability of ethambutol in the presence of isoniazid; format: physicochemical
From the text: 765/Del/2003. However, a disadvantage associated therewith is that due to its unstability properties, ethambutol would degrade.

[2] = tested on: M. tuberculosis; conditions: cited from earlier work

CC[C@@H](CO)NCCN[C@@H](CC)CO [ethambutol]
stability in the presence of isoniazid [1]: highly unstable
minimum inhibitory concentration (MIC) [2]: 1.5 µg/mL (≈ 7.34 µM)
